Legend:
[1] = tested on: actin.PsoS1 (rabbit psoas myosin S1 bound to pyrene-actin); experiment: ATP-induced dissociation of pyr.actin.S1, stopped flow, pyrene fluorescence (fast, psoas); assay type: biochemical; conditions: for kobs of ATP-induced dissociation: 25 µM ATP; for activation energy (Ea) of K1k+2: Pso
Description: (§1) Myosin was prepared from the rabbit psoas (for fast MyHC-II) and the bovine masseter muscle (for slow MyHC-I) according to Margossian and Lowey ([41]), and was subsequently digested to subfragment 1 (S1) with chymotrypsin as described by Weeds and Taylor ([57]) which removes the regulatory light chain region.
(§2) Actin was prepared from rabbit muscle as described by Spudich & Watt ([52]) and labeled with pyrene iodoacetamide to give pyrene-labeled actin as described by Criddle et al. ([15]). Protein stocks of S1 and of pyrene-labeled actin were stored at 4°C and were used for up to 2 wk. In the text herein, reference to actin implies pyrene-labeled actin.
(§3) Stopped-flow experiments were performed essentially as described previously ([4]) using a HiTech Scientific SF-61DX2 stopped-flow system; 4–5 transients were acquired for each ATP transient (Kinetic Studio suite). The dead time of the equipment was 0.002 s. A wide temperature range (5–45°C) for measurements was available because of a new adaptation of the standard stopped-flow machine [see Ref. [56]). Briefly, the samples were held at room temperature (20°C) and then passed through a heat exchanger, at the temperature required for the measurement, just before entering the mixing chamber/observation chamber of the stopped flow. The samples were only exposed to the temperature of the measurement for a few seconds, thus allowing measurements of proteins under conditions where they are not usually stable for long.
The ATP-induced dissociation rate of actin.S1 was measured in the stopped flow by mixing a fixed concentration of pyr.actin.S1 complex (end concentration 0.25 µM) with excess ATP and monitoring fluorescence transients from the pyrene-labeled actin [excitation at 365 nm, emission through a KV389 nm cutoff filter (Schott, Mainz, Germany)]. Details of the kinetic analysis are given under Data Fitting and Interpretation Approach.
(§4) The averaged transients were fitted with a single (Eqn 1) or, if needed, a double exponential equation (Eqn 2):(1)) Ft=ΔF·e^(^−kobs·t)+F∞ or(2)) Ft=ΔF(1)·e^(^−kobs(1)·t)+ΔF(2)·e^(^−kobs(2)·t)+F∞ where Ft is the observed fluorescence at time t, F∞ is the fluorescence at the end of the transient (t = ∞) and ΔF is the total change of fluorescence observed. […] A plot of [ATP] vs. kobs was used to derive the values of K1 and k+2 (using Origin software version 6.0), as defined in Fig. 1 and Eqn 3.
(§5) The values of –Ea/R or or ΔH°/R were derived from the slopes.

[2] = target: T1, actin.MassS1 (bovine masseter myosin S1 bound to pyrene-actin) (Bos taurus, UniProt Q9BE39); experiment: ATP-induced dissociation of pyr.actin.S1, stopped flow, pyrene fluorescence (slow, masseter); assay type: biochemical; design: reduction of amplitude of the dissociation reaction in the presence of phosphate / increase of activation energy by phosphate / activation energy (Ea) of K1k+2: dose or concentration left out as unconfirmed; conditions: for kobs of ATP-induced dissociation: 25 µM ATP; for activation energy (Ea) of K1k+2: Mass
T1 construct: from tissue; host or cells: bovine masseter muscle (myosin); rabbit muscle (actin)
Description: as §1, §2, §3
The ATP-induced dissociation rate of actin.S1 was measured in the stopped flow by mixing a fixed concentration of pyr.actin.S1 complex ([…]) with excess ATP and monitoring fluorescence transients from the pyrene-labeled actin [excitation at 365 nm, emission through a KV389 nm cutoff filter (Schott, Mainz, Germany)]. Details of the kinetic analysis are given under Data Fitting and Interpretation Approach.
as §4, §5

[3] = target: T2, actin.MassS1 (Bos taurus, UniProt Q9BE39); experiment: ADP release rate constant (k-AD), ADP displacement by excess ATP; assay type: biochemical, bovine; design: effect of Pi on kobs of ADP release / increase in kobs of ADP release in the presence of phosphate / activation energy (Ea) of k−AD (ADP release): dose or concentration left out as unconfirmed; conditions: […] mM Pi
T2 construct: from tissue; host or cells: bovine masseter muscle (myosin); rabbit muscle (actin)
Description: Two types of myosins were studied which are known to differ in their dissociation constant for nucleotides ([5], [51]). The rate constant for the release of ADP (k−ADP) is relatively slow for masseter S1 and can easily be measured in an ADP displacement experiment. This step is very fast for a fast muscle isoform and too fast to measure by current equipment. Briefly, actin.^MassS1 saturated with 75 µM of ADP (A.M.D complex) was mixed with a large excess of ATP (8 mM) in the stopped flow. Then the kobs values, fitted to a single exponential equation (Eqn 1) defined the rate constant by which ADP is released by the ternary A.M.D complex (k−AD).
The temperature dependence of the above studied biochemical steps K1k+2, KADP, KPi, and KADP+Pi data were plotted as the natural logarithm of the measured parameter against the reciprocal of temperature in degrees Kelvin (1/T °K) and fitted with linear regression using the Arrhenius (rate constants) or Van’t Hoff (equilibrium constants) equations(7)) lnK1k+2=ln(A)−Ea/RT (8)) lnKeq=ΔS°/R−ΔH°/RT where Ea stands for activation energy, R is the gas constant, and A is a preexponential factor. The values of –Ea/R or or ΔH°/R were derived from the slopes.

Compound: Nc1ncnc2c1ncn2[C@@H]1O[C@H](COP(=O)(O)OP(=O)(O)OP(=O)(O)O)[C@@H](O)[C@H]1O [ATP]
- kobs of ATP-induced dissociation ([1]; 0.5 µM pyr-act.PsoS1, pH 7.0, 5°C): 84.8 s⁻¹
- kobs of ATP-induced dissociation ([1]; 0.5 µM pyr-act.PsoS1, pH 7.0, 25°C): 208.5 s⁻¹
- kobs of ATP-induced dissociation ([1]; 0.5 µM pyr-act.PsoS1, pH 7.0, 35°C): 296.9 s⁻¹
- kobs of ATP-induced dissociation ([1]; 0.5 µM pyr-act.PsoS1, pH 7.0, 43°C): 374.4 s⁻¹
- kobs of ATP-induced dissociation ([1]; 0.5 µM pyr-act.PsoS1, pH 7.0, […]°C): 136.2 s⁻¹
- kobs of ATP-induced dissociation ([1]; zero ADP, 20°C, pH 7.0): 87.7 s⁻¹
- activation energy (Ea) of K1k+2 ([1]; pH 6.2, + 30 mM Pi): 39.2 ± 1.6 kJ/mol
- activation energy (Ea) of K1k+2 ([1]; pH 6.2, no Pi, 5–43°C): 29.3 ± 0.8 kJ/mol
- activation energy (Ea) of K1k+2 ([1]; pH 7.0, + 30 mM Pi): 37.7 ± 1.2 kJ/mol
- activation energy (Ea) of K1k+2 ([1]; pH 7.0, no Pi, 5–43°C): 28.3 ± 0.8 kJ/mol
- activation energy of the dissociation rate constant ([1]; psoas, in the presence of phosphate, irrespective of pH): 38 ± 1 kJ/mol
- kobs of ATP-induced dissociation ([2]; 0.5 µM pyrAct.MassS1, pH 7.0, 5°C): 26.7 s⁻¹
- kobs of ATP-induced dissociation ([2]; 0.5 µM pyrAct.MassS1, pH 7.0, 25°C): 46.7 s⁻¹
- kobs of ATP-induced dissociation ([2]; 0.5 µM pyrAct.MassS1, pH 7.0, 35°C): 64.9 s⁻¹
- kobs of ATP-induced dissociation ([2]; 0.5 µM pyrAct.MassS1, pH 7.0, […]°C): 36.1 s⁻¹
- kobs of ATP-induced dissociation ([2]; zero ADP, 20°C, pH 7.0): 37.5 s⁻¹
- activation energy (Ea) of K1k+2 ([2]; pH 6.2, + […] mM Pi): 30.7 ± 0.7 kJ/mol
- activation energy (Ea) of K1k+2 ([2]; pH 6.2, no Pi, 5–43°C): 23.8 ± 1.1 kJ/mol
- activation energy (Ea) of K1k+2 ([2]; pH 7.0, + […] mM Pi): 29.9 ± 1.1 kJ/mol
- activation energy (Ea) of K1k+2 ([2]; pH 7.0, no Pi, 5–43°C): 25.7 ± 1.4 kJ/mol
- activation energy of the dissociation rate constant ([2]; masseter, in the presence of phosphate, irrespective of pH): 30 ± 1 kJ/mol

Compound: O=P(O)(O)O [Pi, inorganic phosphate]
- increase in kobs of ADP release in the presence of phosphate ([3]; pH 6.2): 30–50%
- effect of Pi on kobs of ADP release ([3]; pH 7.0): little effect
- reduction of amplitude of the dissociation reaction in the presence of phosphate ([1]; PsoS1, 30 mM Pi): 50%
- increase of activation energy by phosphate ([1]; PsoS1, both pH values, 30 mM Pi vs no Pi): about 10 kJ/mol
- reduction of amplitude of the dissociation reaction in the presence of phosphate ([2]; MassS1, […] mM Pi): 50%
- increase of activation energy by phosphate ([2]; masseter, […] mM Pi vs no Pi): about 5 kJ/mol

From publication PMC5814585, “Modulators of actin-myosin dissociation: basis for muscle type functional differences during fatigue” (American Journal of Physiology - Cell Physiology, 2017)
